Columns and labels:
Test in all cases: whole plant or invertebrate
Type in all cases: in vivo
[1] = tested on: Euschistus heros (Neotropical Brown Stink Bug); details: in Glycine max, 120 h, application rate of 200 ppm, N2 nymphs, 5 days after infestation, read-out: effect in at least one of the two categories (mortality or growth inhibition)
Method: Soybean leaves on agar in 24-well microtiter plates were sprayed with aqueous test solutions prepared from 10,000 ppm DMSO stock solutions. After drying the leaves were infested with N2 nymphs. The samples were assessed for mortality and growth inhibition in comparison to untreated samples 5 days after infestation.

[2] = tested on: Diabrotica balteata (Corn Root Worm); details: 96 h, application rate of 200 ppm, L2 larvae, 4 days after infestation, read-out: effect in at least one of the two categories (mortality or growth inhibition)
Method: Maize sprouts placed onto an agar layer in 24-well microtiter plates were treated with aqueous test solutions prepared from 10,000 ppm DMSO stock solutions by spraying. After drying, the plates were infested with L2 larvae (6 to 10 per well). The samples were assessed for mortality and growth inhibition in comparison to untreated samples 4 days after infestation.

[3] = tested on: Myzus persicae (Green Peach Aphid); details: foliar, 144 h, application rate of 200 ppm, sunflower leaf discs, population of mixed ages, 6 days after infestation
Method: (§1) Sunflower leaf discs were placed onto agar in a 24-well microtiter plate and sprayed with aqueous test solutions prepared from 10,000 ppm DMSO stock solutions. After drying, the leaf discs were infested with an aphid population of mixed ages. The samples were assessed for mortality 6 days after infestation.

[4] = tested on: Spodoptera littoralis (Egyptian Cotton Leaf Worm); details: foliar, 72 h, application rate of 200 ppm, L1 larvae, 3 days after infestation, read-out: control (mortality, anti-feeding effect or growth inhibition)
Method: Cotton leaf discs were placed onto agar in 24-well microtiter plates and sprayed with aqueous test solutions prepared from 10,000 ppm DMSO stock solutions. After drying the leaf discs were infested with five L1 larvae. The samples were assessed for mortality, anti-feeding effect, and growth inhibition in comparison to untreated samples 3 days after infestation.

[5] = tested on: Thrips tabaci (Onion Thrips); details: foliar, 144 h, application rate of 200 ppm, sunflower leaf discs, population of mixed ages, 6 days after infestation
Method: as §1, with “on” for “onto”, “in” for “in a”, “plates” for “plate”, “drying” for “drying,”, “a thrips” for “an aphid”

[6] = tested on: Bemisia tabaci (Cotton White Fly); details: foliar, 144 h, application rate of 200 ppm, cotton leaf discs, adult white flies, 6 days after incubation
Method: Cotton leaf discs were placed on agar in 24-well microtiter plates and sprayed with aqueous test solutions prepared from 10,000 ppm DMSO stock solutions. After drying the leaf discs were infested with adult white flies. The samples were checked for mortality 6 days after incubation.

[7] = tested on: Plutella xylostella (Diamond Back Moth); details: 120 h, application rate of 200 ppm, L2 larvae, 5 days after infestation, read-out: effect in at least one of the two categories (mortality or growth inhibition)
Method: 24-well microtiter plates with artificial diet were treated with aqueous test solutions prepared from 10,000 ppm DMSO stock solutions by pipetting. After drying, the plates were infested with L2 larvae (10 to 15 per well). The samples were assessed for mortality and growth inhibition in comparison to untreated samples 5 days after infestation.

[8] = tested on: Spodoptera littoralis (Egyptian Cotton Leaf Worm); details: 144 h, test rate of 12.5 ppm, lettuce grown on treated agar, 6 days after infestation, read-out: effect in at least one of the three categories (mortality, anti-feeding, or growth inhibition)
From the text: Test compounds were applied by pipette from 10,000 ppm DMSO stock solutions into 24-well plates and mixed with agar. Lettuce seeds were placed onto the agar and the multi well plate was closed by another plate which contained also agar. After 7 days the compound was absorbed by the roots and the lettuce grew into the lid plate. The lettuce leaves were then cut off into the lid plate. Spodoptera eggs were pipetted through a plastic stencil onto a humid gel blotting paper and the lid plate was closed with it. The samples were assessed for mortality, anti-feedant effect and growth inhibition in comparison to untreated samples 6 days after infestation.

[9] = tested on: Frankliniella occidentalis (Western Flower Thrips); details: foliar, 168 h, application rate of 200 ppm, sunflower leaf discs, population of mixed ages, 7 days after infestation
Method: Sunflower leaf discs were placed on agar in 24-well microtiter plates and sprayed with aqueous test solutions prepared from 10,000 DMSO stock solutions. After drying the leaf discs were infested with a Frankliniella population of mixed ages. The samples were assessed for mortality 7 days after infestation.

[10] = tested on: Tetranychus urticae (Two-Spotted Spider Mite); details: foliar, 192 h, application rate of 200 ppm, bean leaf discs, mixed population (mobile stages), 8 days after infestation
Method: Bean leaf discs on agar in 24-well microtiter plates were sprayed with aqueous test solutions prepared from 10,000 ppm DMSO stock solutions. After drying the leaf discs were infested with a mite population of mixed ages. The samples were assessed for mortality on mixed population (mobile stages) 8 days after infestation.

[11] = tested on: Myzus persicae (Green Peach Aphid); details: 144 h, test rate of 24 ppm, roots of pea seedlings in test solution, 6 days
Method: Roots of pea seedlings infested with an aphid population of mixed ages were placed directly into aqueous test solutions prepared from 10,000 DMSO stock solutions. The samples were assessed for mortality 6 days after placing seedlings into test solutions.

CCS(=O)(=O)c1cc(C(F)(F)F)cnc1-c1nc2cc(C(F)(F)F)n(C3CC3)c(=O)c2n1C [Compound A1, 5-cyclopropyl-2-[3-ethylsulfonyl-5-(trifluoromethyl)-2-pyridyl]-3-methyl-6-(trifluoromethyl) imidazo[4,5-c]pyridin-4-one]
≥ 80%: percent effect (mortality or growth inhibition) at 200 ppm [1] | percent effect (mortality or growth inhibition) at 200 ppm [2] | mortality at 200 ppm [3] | percent control (mortality, anti-feedant effect or growth inhibition) at 200 ppm [4] | mortality at 200 ppm [5] | mortality at 200 ppm [6] | percent effect (mortality or growth inhibition) at 200 ppm [7] | percent effect (mortality, anti-feeding or growth inhibition) at 12.5 ppm [8] | mortality at 200 ppm [9]

CCS(=O)(=O)c1cc(-n2ccc(C(F)(F)F)n2)cnc1-c1nc2cc(C(F)(F)F)n(C3CC3)c(=O)c2n1C [Compound A3, 5-cyclopropyl-2-[3-ethylsulfonyl-5-[3-(trifluoromethyl)pyrazol-1-yl]-2-pyridyl]-3-methyl-6-(trifluoromethyl)imidazo[4,5-c]pyridin-4-one]
≥ 80%: percent effect (mortality or growth inhibition) at 200 ppm [1] | percent effect (mortality or growth inhibition) at 200 ppm [2] | percent control (mortality, anti-feedant effect or growth inhibition) at 200 ppm [4] | percent effect (mortality or growth inhibition) at 200 ppm [7]

CCS(=O)(=O)c1cc(Br)cnc1-c1nc2cc(C(F)(F)F)n(C3CC3)c(=O)c2n1C [Compound A5, 2-(5-bromo-3-ethylsulfonyl-2-pyridyl)-5-cyclopropyl-3-methyl-6-(trifluoromethyl)imidazo[4,5-c]pyridin-4-one]
≥ 80%: percent effect (mortality or growth inhibition) at 200 ppm [1] | percent effect (mortality or growth inhibition) at 200 ppm [2] | mortality at 200 ppm [3] | percent control (mortality, anti-feedant effect or growth inhibition) at 200 ppm [4] | mortality at 200 ppm [5] | mortality at 200 ppm [6] | percent effect (mortality or growth inhibition) at 200 ppm [7] | percent effect (mortality, anti-feeding or growth inhibition) at 12.5 ppm [8]

CCS(=O)(=O)c1cc(-c2cc(F)cc(F)c2)cnc1-c1nc2cc(C(F)(F)F)n(C3CC3)c(=O)c2n1C [Compound A6, 5-cyclopropyl-2-[5-(3,5-difluorophenyl)-3-ethylsulfonyl-2-pyridyl]-3-methyl-6-(trifluoromethyl)imidazo[4,5-c]pyridin-4-one]
≥ 80%: percent effect (mortality or growth inhibition) at 200 ppm [1] | percent effect (mortality or growth inhibition) at 200 ppm [2] | mortality at 200 ppm [3] | percent control (mortality, anti-feedant effect or growth inhibition) at 200 ppm [4] | mortality at 200 ppm [5] | mortality at 200 ppm [6] | percent effect (mortality or growth inhibition) at 200 ppm [7] | percent effect (mortality, anti-feeding or growth inhibition) at 12.5 ppm [8] | mortality at 200 ppm [9]

CCS(=O)(=O)c1cc(-c2cc(C(F)(F)F)ccn2)cnc1-c1nc2cc(C(F)(F)F)n(C3CC3)c(=O)c2n1C [Compound A7, 5-cyclopropyl-2-[3-ethylsulfonyl-5-[4-(trifluoromethyl)-2-pyridyl]-2-pyridyl]-3-methyl-6-(trifluoromethyl)imidazo[4,5-c]pyridin-4-one]
≥ 80%: percent effect (mortality or growth inhibition) at 200 ppm [1] | percent effect (mortality or growth inhibition) at 200 ppm [2] | mortality at 200 ppm [3] | percent control (mortality, anti-feedant effect or growth inhibition) at 200 ppm [4] | mortality at 200 ppm [6] | percent effect (mortality or growth inhibition) at 200 ppm [7] | mortality at 200 ppm [9]

CCS(=O)(=O)c1cc(C2(C#N)CC2)cnc1-c1nc2cc(C(F)(F)F)n(C3CC3)c(=O)c2n1C [Compound A31, 1-[6-[5-cyclopropyl-3-methyl-4-oxo-6-(trifluoromethyl)imidazo[4,5-c]pyridin-2-yl]-5-ethylsulfonyl-3-pyridyl]cyclopropanecarbonitrile]
≥ 80%: percent effect (mortality or growth inhibition) at 200 ppm [1] | percent effect (mortality or growth inhibition) at 200 ppm [2] | mortality at 200 ppm [3] | percent control (mortality, anti-feedant effect or growth inhibition) at 200 ppm [4] | mortality at 200 ppm [5] | mortality at 200 ppm [6] | mortality at 200 ppm [10] | percent effect (mortality or growth inhibition) at 200 ppm [7] | mortality at 24 ppm [11] | percent effect (mortality, anti-feeding or growth inhibition) at 12.5 ppm [8] | mortality at 200 ppm [9]

CCS(=O)(=O)c1cc(-n2cnc(Cl)n2)cnc1-c1nc2cc(C(F)(F)F)n(C3CC3)c(=O)c2n1C [Compound A34, 2-[5-(3-chloro-1,2,4-triazol-1-yl)-3-ethylsulfonyl-2-pyridyl]-5-cyclopropyl-3-methyl-6-(trifluoromethyl)imidazo[4,5-c]pyridin-4-one]
≥ 80%: percent effect (mortality or growth inhibition) at 200 ppm [1] | percent effect (mortality or growth inhibition) at 200 ppm [2] | mortality at 200 ppm [3] | percent control (mortality, anti-feedant effect or growth inhibition) at 200 ppm [4] | percent effect (mortality or growth inhibition) at 200 ppm [7] | percent effect (mortality, anti-feeding or growth inhibition) at 12.5 ppm [8] | mortality at 200 ppm [9]

From patent US10738045B2, “Pesticidally active heterocyclic derivatives with sulphur and cyclopropyl containing substituents” (SYNGENTA PARTICIPATIONS AG, priority 2015, dated 2020)
